# Results published in patent US10137185B2, “PAP peptide analogues” (THE NOTTINGHAM TRENT UNIVERSITY, priority 2014, dated 2018).
# How the values were obtained:
# [1] = tested on: PBMCs isolated from patients with prostate cancer; experiment: IFNγ ELISA of supernatants of PBMCs, Norway clinical trial; format: cell-based, human
# Description: FIG. 8. Fold change in the IFNγ response generated by PBMCs isolated from patients with prostate cancer from the Norway Clinical Trial after re-stimulation with of PAP-115-123 epitope peptide (10 μg), as assessed using an ELISA. Patients that were reported to have responded to the treatment (p10, p12, p15, p19, p101, p102, p107, p108) are indicated by red bars. […] The cryopreserved PBMCs were washed and rested overnight, at which time 4×10^4 cells were added to each well of a 96 well plate. PAP-115-123 epitope peptide (10 μg) was added to each well and the plates cultured for 48 hours. Supernatants were harvested and analysed for IFNγ secretion.
# Cryopreserved PBMCs were thawed, washed and rested overnight, at which time 4×10^4 cells were added to each well of an ELISPOT plate. PAP-115-123 epitope peptide (10 μg) was to each well and cells were cultured for 48 hours. The plates were developed according to the manufacturer's protocol. PBMCs cultured with HIV-derived peptide or no peptide were used as controls. A 2-4 fold higher PAP-115-123 specific IFNγ response was observed using PBMCs from 8 of the responder patients and 2-12 fold decreases in the IFNγ response was observed using PBMCs from 4 of the non-responder patients (FIG. 7). IFNγ secretion in these samples was confirmed by analysing harvested supernatants using an R&D Systems ELISA (FIG. 8). […]
# [2] = tested on: PBMCs from HLA-A2 positive patients with prostate cancer and individuals with benign disease; experiment: IFNγ ELISPOT of PBMCs from prostate cancer patients and individuals with benign disease after peptide re-stimulation; format: cell-based, human
# Description: FIG. 3. IFNγ response of peripheral blood mononuclear cells (PBMCs) isolated from patients with prostate cancer and individuals with benign disease after re-stimulation with PAP-115-123 epitope using an ELISPOT assay. Cryopreserved PBMCs from ten HLA-A2 positive prostate cancer patients and ten benign candidates were compared. The PBMCs were cultured in vitro with 5 μg of PAP-114-128 epitope for 7 days. The cells were then washed and rested overnight and 4×10^4 cells were added to each well of an ELISPOT plate. PAP-115-123 epitope peptide (1 μg) was added per well and cells cultured for 48 hours. The plates were then washed according to the manufacturer's protocol. PBMCs with no added peptide were used as control. Comparisons of means (±SEM) between groups (cells pulsed with PAP-115-123 or no peptide) are made using an unpaired t test.
# FIG. 12. IFNγ responses generated by PBMCs isolated from 10 patients with prostate cancer and 10 individuals with benign disease after re-stimulation with the PAP-115-123 analogue epitope peptide, as determined using an ELISPOT assay. PBMCs were cultured in vitro with 5 μg of PAP-114-128 analogue epitope for 7 days. The cells were then washed and rested overnight, at which time and 4×10^4 cells were added to each well of an ELISPOT plate. PAP-115-123 analogue epitope peptide (1 μg) was added to each well and the cells were cultured for 48 hours. The plates were then washed according to the manufacturer's protocol. PBMCs cultured with no added peptide were used as the control. Comparisons of means (±SEM) between groups (PBMCs pulsed with PAP-115-123 analogue or no peptide) are made using an unpaired t test.
# To determine the presence of circulating T cells specific for PAP-115-123 in humans, PBMCs from HLA-A2 positive patients with prostate cancer and individuals with benign disease were used. Cryopreserved PBMCs were thawed, washed and restimulated for 7 days with […] epitope peptide. The cells were then washed and rested overnight, at which time 4×10^4 cells were added to each well of an ELISPOT plate. PAP-115-123 epitope peptide (1 μg) was added to each well and the cells cultured for 48 hours. The plates were developed according to the manufacturer's instructions. PBMCs cultured with no peptide were used as controls. […] The number of IFNγ spots generated by PBMCs from one of the patients was as high as 220 (vs 60 spots for the control). The number of spots generated by PBMCs for the other 6 patients with prostate cancer ranged between 50 and 100 (vs 10-20 in controls). Although some of the PBMCs from individuals with benign disease generated 50-100 spots, the number of spots in the control wells was also high.
# To determine the presence of circulating T cells specific for PAP-115-123 analogue peptide in humans, PBMCs from HLA-A2 positive patients with prostate cancer and individuals with benign disease were used. Cryopreserved PBMCs were thawed, washed and restimulated for 7 days with […] analogue epitope. The cells were then washed and rested overnight, at which time 4×10^4 cells were added to each well of an ELISPOT plate. 1 μg of PAP-115-123 analogue epitope was added to each well and cells were cultured for 48 hours. The plates were developed as per the manufacturer's instructions. PBMCs cultured with no peptide were used as control. […] The number of IFNγ spots in one of the patients was as high as 180 spots compared to control (54 spots). Similar response was also obtained when PBMCs were co-cultured with PAP-115-123 epitope (FIG. 3). The number of spots generated by PBMCs from the 6 patients with prostate cancer patients ranged between 50 and 100 (vs 10-20 in control wells). Although some of the samples from individuals with benign disease generated 50-100 spots, the number of spots in the control wells was also high.
sequence,measurement,setting,value
SAMTNLAAL [PAP-115-123],"fold lower IFNγ levels post vs pre vaccination, non-responders",[1]; 10 μg peptide,2-2.5 fold
same,"fold higher IFNγ levels post vs pre vaccination, responders","[1]; all responders except p19, 10 μg peptide",1-1.5 fold
same,"number of spots, other 6 patients with prostate cancer","[2]; 1 μg peptide, 4×10^4 cells per well, 10-20 in controls",50-100 spots
same,"number of spots, some PBMCs from individuals with benign disease","[2]; 1 μg peptide, spots in control wells also high",50-100 spots
same,peptide-specific IFNγ response in samples from individuals with benign disease,"[2]; 10 benign individuals, 1 μg peptide",no PAP-115-123 specific IFNγ response and none
same,PBMC samples from patients with prostate cancer with peptide-specific IFNγ response,"[2]; of 10 samples, 7 days re-stimulation with the 15-mer, then 1 μg peptide, 48 hours, vs no peptide",7
same,"number of IFNγ spots, highest patient","[2]; one prostate cancer patient, 1 μg peptide, 4×10^4 cells per well, 48 hours",220 spots
